Among the data in ChEMBL document CHEMBL2073873, “Identification of a novel human organic anion transporting polypeptide as a high affinity thyroxine transporter” (Mol Endocrinol, 2002) are Activity and Km values, retold here.

The term Km denotes the substrate concentration at which the rate is half of its maximum.

Residues, ends and D or L forms follow the SMILES beside them.

To fix the notation:
T1: Solute carrier organic anion transporter family member 1C1 (Homo sapiens, UniProt Q9NYB5)
T1 sequence (Q9NYB5 whole entry): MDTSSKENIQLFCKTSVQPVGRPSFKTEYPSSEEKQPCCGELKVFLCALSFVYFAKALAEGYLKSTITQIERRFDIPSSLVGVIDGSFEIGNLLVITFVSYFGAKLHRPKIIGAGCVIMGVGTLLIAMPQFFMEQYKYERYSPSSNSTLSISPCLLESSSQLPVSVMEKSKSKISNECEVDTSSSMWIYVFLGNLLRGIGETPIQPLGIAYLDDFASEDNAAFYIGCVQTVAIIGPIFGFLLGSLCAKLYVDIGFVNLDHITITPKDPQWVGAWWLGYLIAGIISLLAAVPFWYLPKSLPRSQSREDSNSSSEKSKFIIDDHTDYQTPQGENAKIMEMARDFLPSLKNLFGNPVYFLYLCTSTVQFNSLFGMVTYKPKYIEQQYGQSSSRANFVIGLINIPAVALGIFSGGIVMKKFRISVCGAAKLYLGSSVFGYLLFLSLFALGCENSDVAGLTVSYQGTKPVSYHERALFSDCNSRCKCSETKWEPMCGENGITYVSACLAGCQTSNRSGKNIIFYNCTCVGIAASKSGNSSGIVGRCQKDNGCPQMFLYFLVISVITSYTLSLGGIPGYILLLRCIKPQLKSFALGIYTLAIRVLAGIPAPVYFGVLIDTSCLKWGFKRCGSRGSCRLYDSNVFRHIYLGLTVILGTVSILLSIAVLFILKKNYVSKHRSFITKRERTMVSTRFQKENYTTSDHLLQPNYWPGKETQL

B1: Solute carrier organic anion transporter family member 1C1 (Homo sapiens) (protein)
chain: MDTSSKENIQLFCKTSVQPVGRPSFKTEYPSSEEKQPCCGELKVFLCALSFVYFAKALAEGYLKSTITQIERRFDIPSSLVGVIDGSFEIGNLLVITFVSYFGAKLHRPKIIGAGCVIMGVGTLLIAMPQFFMEQYKYERYSPSSNSTLSISPCLLESSSQLPVSVMEKSKSKISNECEVDTSSSMWIYVFLGNLLRGIGETPIQPLGIAYLDDFASEDNAAFYIGCVQTVAIIGPIFGFLLGSLCAKLYVDIGFVNLDHITITPKDPQWVGAWWLGYLIAGIISLLAAVPFWYLPKSLPRSQSREDSNSSSEKSKFIIDDHTDYQTPQGENAKIMEMARDFLPSLKNLFGNPVYFLYLCTSTVQFNSLFGMVTYKPKYIEQQYGQSSSRANFVIGLINIPAVALGIFSGGIVMKKFRISVCGAAKLYLGSSVFGYLLFLSLFALGCENSDVAGLTVSYQGTKPVSYHERALFSDCNSRCKCSETKWEPMCGENGITYVSACLAGCQTSNRSGKNIIFYNCTCVGIAASKSGNSSGIVGRCQKDNGCPQMFLYFLVISVITSYTLSLGGIPGYILLLRCIKPQLKSFALGIYTLAIRVLAGIPAPVYFGVLIDTSCLKWGFKRCGSRGSCRLYDSNVFRHIYLGLTVILGTVSILLSIAVLFILKKNYVSKHRSFITKRERTMVSTRFQKENYTTSDHLLQPNYWPGKETQL

The first series concerns the target T1, Solute carrier organic anion transporter family member 1C1. The series can be described thus: (§1) TP_TRANSPORTER: uptake in OATP-F-expressing CHO cells. In kind it is functional, cell-based. To be noted: hamster.
As to `C[C@]12CC[C@@H]3c4ccc(O)cc4CC[C@H]3[C@@H]1CC[C@@H]2O[C@@H]1O[C@H](C(=O)O)[C@@H](O)[C@H](O)[C@H]1O` [ESTRADIOL 17B GLUCURONIDE], the Activity result was “substrate [+]”.

For the molecule `C[C@H](CCC(=O)NCC(=O)O)[C@H]1CC[C@H]2[C@@H]3[C@H](O)C[C@@H]4C[C@H](O)CC[C@]4(C)[C@H]3C[C@H](O)[C@]12C` [GLYCOCHOLIC ACID], the Activity entry is “is not a substrate [-]”. Still for that read-out and setting: next, `C[C@]12CC[C@@H]3c4ccc(OS(=O)(=O)O)cc4CC[C@H]3[C@@H]1CCC2=O` [ESTRONE SULFURIC ACID]: “substrate [+]”; `CCCCC/C=C\C\C=C/C=C/C=C/[C@@H](SC[C@@H](NC(=O)CC[C@H](N)C(=O)O)C(=O)NCC(=O)O)[C@@H](O)CCCC(=O)O` [LEUKOTRIEN C4]: “is not a substrate [-]”. As for `CC(C)[C@H](NC(=O)[C@H](CCC(=O)O)NC(=O)[C@H](Cc1ccccc1)NC(=O)[C@@H](C)NC(=O)[C@@H](N)Cc1ccc(O)cc1)C(=O)N[C@H](C(=O)NCC(N)=O)C(C)C` [DELTORPHIN II], the Activity entry is “is not a substrate [-]”. Still for that read-out and setting: next, `C[C@@H]1O[C@@H](O[C@H]2C[C@@H](O)[C@]3(CO)[C@H]4[C@H](O)C[C@]5(C)[C@@H](C6=CC(=O)OC6)CC[C@]5(O)[C@@H]4CC[C@]3(O)C2)[C@H](O)[C@H](O)[C@H]1O` [OUABAIN]: “is not a substrate [-]”; `CC1(C)SSC(C)(C)[C@@H](NC(=O)[C@@H](N)Cc2ccc(O)cc2)C(=O)NCC(=O)N[C@@H](Cc2ccccc2)C(=O)N[C@H]1C(=O)O`: “is not a substrate [-]”; `C=C[C@H]1C[N+]2(C)CC[C@H]1C[C@H]2[C@H](O)c1ccnc2ccc(OC)cc12`: “is not a substrate [-]”. On the same count and under the same terms, to `N[C@@H](Cc1cc(I)c(Oc2ccc(O)c(I)c2)c(I)c1)C(=O)O` [LIOTHYRONINE] belongs “substrate [+]”; to `CCCCC[C@H](O)/C=C/[C@H]1[C@H](O)CC(=O)[C@@H]1C/C=C\CCCC(=O)O` [DINOPROSTONE], “is not a substrate [-]”; to `C[C@]12CC[C@H](OS(=O)(=O)O)CC1=CC[C@@H]1[C@@H]2CC[C@]2(C)C(=O)CC[C@@H]12` [PRASTERONE SULFURIC ACID], “is not a substrate [-]”. On the same count and under the same terms, to `CN(Cc1cnc2nc(N)nc(N)c2n1)c1ccc(C(=O)N[C@@H](CCC(=O)O)C(=O)O)cc1` [METHOTREXATE] belongs “is not a substrate [-]”; to `O=C1OC(c2ccc(O)c(S(=O)(=O)[O-])c2)(c2ccc(O)c(S(=O)(=O)[O-])c2)c2c(Br)c(Br)c(Br)c(Br)c21.[Na+].[Na+]` [SULFOBROMOPHTHALEIN SODIUM], “substrate [+]”. Consider `CC(C)C[C@@H]1NC(=O)[C@@H](C(C)C)NC(=O)[C@@H]2CCCN2C(=O)[C@@H](CC(=O)O)NC(=O)[C@@H](Cc2c[nH]c3ccccc23)NC1=O` [BQ-123] (HELM PEPTIDE1{L.[dW].[dD].P.[dV]}$PEPTIDE1,PEPTIDE1,1:R1-5:R2$$$V2.0), for which the Activity result was “is not a substrate [-]”.

Substrate in the next series: N[C@@H](Cc1cc(I)c(Oc2cc(I)c(O)c(I)c2)c(I)c1)C(=O)O
Described as §1. The series is classed as functional, cell-based.
Settings: not given
Turning to B1, the Km turned out to be 0.0904 µM.

Substrate in the next series: N[C@@H](Cc1ccc(Oc2cc(I)c(O)c(I)c2)c(I)c1)C(=O)O
The description is as §1. The series is classed as functional, cell-based.
Settings: not given
For the molecule B1, the Km was determined as 0.128 µM.
